Measurements from patent US7560468B2, “Substituted 1,4,8-triazaspiro[4,5]decan-2-one compounds” (Gruenenthal GmbH, priority 2004, dated 2009).

How the values were obtained:
[1] = system: batrachotoxin (BTX) binding site of the sodium channel; test: Affinity to the batrachotoxin (BTX) binding site of the sodium channel; conditions: rat cerebrocortex synaptosomes, [3H]-batrachotoxinin A20 α-benzoate 10 nM; test concentration not given
[2] = biological target: T1, 5-HT transporter (Rattus norvegicus, UniProt P31652); test: Inhibition of 5-HT uptake in synaptosomes; assay type: biochemical; conditions: for inhibition at 1 µM: read-out: Uptake_5-HT, rat, 1 μM, % inhibition
T1 construct: from tissue; host or cells: rat brain synaptosomes (marrow/medulla and pons), P2 fraction
T1 sequence (P31652 whole entry): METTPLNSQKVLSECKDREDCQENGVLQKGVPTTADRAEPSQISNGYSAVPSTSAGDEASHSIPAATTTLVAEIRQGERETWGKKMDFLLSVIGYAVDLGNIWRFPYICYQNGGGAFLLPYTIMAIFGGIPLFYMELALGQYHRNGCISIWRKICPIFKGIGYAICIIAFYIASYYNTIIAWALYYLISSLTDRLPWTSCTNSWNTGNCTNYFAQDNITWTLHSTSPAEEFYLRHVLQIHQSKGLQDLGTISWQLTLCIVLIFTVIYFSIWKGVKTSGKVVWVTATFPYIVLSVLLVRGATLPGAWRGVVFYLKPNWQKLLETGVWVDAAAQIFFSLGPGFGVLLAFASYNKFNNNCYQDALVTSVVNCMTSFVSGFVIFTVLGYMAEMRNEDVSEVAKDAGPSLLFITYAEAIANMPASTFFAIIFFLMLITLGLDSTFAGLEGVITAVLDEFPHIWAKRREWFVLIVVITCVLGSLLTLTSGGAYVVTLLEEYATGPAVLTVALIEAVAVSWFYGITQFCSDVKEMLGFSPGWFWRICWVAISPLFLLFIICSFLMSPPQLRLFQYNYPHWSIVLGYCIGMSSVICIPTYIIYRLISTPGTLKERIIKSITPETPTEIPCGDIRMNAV

[3] = biological target: human CB2 receptor (Homo sapiens, UniProt P34972); test: Affinity to the cannabinoid receptor CB2, displacement of [3H]-CP 55,940; conditions: for Inhibition CB2 10 μM, % inhibition: membranes of HEK 293EBNA cells with human CB2 receptor; for Ki: CB2, Cheng Prusoff correction of IC50; for inhibition at 10 µM: read-out: Inhibition CB2 10 μM, % inhibition
human CB2 receptor, sequence (P34972 whole entry): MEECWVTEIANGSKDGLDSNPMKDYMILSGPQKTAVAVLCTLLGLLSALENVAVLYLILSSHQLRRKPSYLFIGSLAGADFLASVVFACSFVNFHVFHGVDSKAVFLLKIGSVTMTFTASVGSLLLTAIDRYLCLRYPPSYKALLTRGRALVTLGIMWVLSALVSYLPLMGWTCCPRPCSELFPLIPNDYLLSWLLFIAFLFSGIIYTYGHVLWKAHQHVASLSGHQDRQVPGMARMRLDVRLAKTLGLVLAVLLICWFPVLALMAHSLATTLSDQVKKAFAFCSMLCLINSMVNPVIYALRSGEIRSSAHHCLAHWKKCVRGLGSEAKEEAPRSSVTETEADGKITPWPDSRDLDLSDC
Method: The radioligand used was tritium-labeled 5-(1,1-dimethylheptyl)-2-(5-hydroxypropyl)cyclohexyl)-1-alpha,2-beta,5-alpha)-phenol (^[3]H—CP 55,940 with 103.4 of Ci/mmol, 1 m Ci/mL). Determination was carried out in a test buffer comprising 50 mM of Tris-HCl, 2.5 mm of EDTA, 5 mm of MgCl2 and 1.0 mg/mL of fatty acid-free BSA. The test substances were in each case dissolved in DMSO.
The affinity of the compounds of the invention to the CB2 receptor is determined by their ability to displace ^[3]H—CP from 55,940 of CB2 receptors in membranes of HEK 293 EBNA cells. For this purpose 8 μg of membranes (20 mL of a solution of membranes in a concentration of 400 g/ml) are incubated in wells of a microtiter plate with a 0.33 nM of solution of [3]H-CP 55,949 (120 of Ci/mmol) in a total volume of test buffer of 200 μL for 90 minutes at 30° C.
Subsequently, either the test substances or WIN 55,212-2 for determination the non-specific binding are placed, dissolved in each case in dimethyl sulphoxide, in the wells so that in each case a concentration of the relevant substances of 10 μM is obtained.
Incubation is continued for a further 40 minutes at 30° C. dc. […] The filters are washed nine times with 0.5 mL of ice-cold washing buffer (50 nM of Tris-HCl, 5 mM of MgCl2, 2.5 mm of EDTA, 2% of BSA, pH 7.4), air-dried, placed in scintillation liquid, and the radioactivity is determined with the aid of a scintillation counter.
The percentage displacement of the radio-active ligand ^[3]H—CP 55,940 from its binding to the CB2 receptor is indicated as percentage inhibition of the specific binding. In order to determine Ki the IC50 inhibition concentrations are calculated based on of the percentage displacement achieved by the compounds of the general formula I to be tested at various concentrations causing a 50 percent displacement of the radioactive ligands.

[4] = system: NA transporter; test: Inhibition of noradrenalin uptake in synaptosomes; assay type: biochemical

Row | Molecule | BTX Inhibition [1] | Uptake_5-HT, rat, 1 μM, % inhibition [2] [%] | Inhibition CB2 10 μM, % inhibition [3] [%] | Ki [3] [µM] | Uptake (NA), rat, 10 μM, % inhibition [4] [%] | inhibition at 1 µM [2] [%] | inhibition at 10 µM [3] [%]
1 | O=C1C(Cc2ccccc2)NC2(CCN(S(=O)(=O)c3ccc([N+](=O)[O-])cc3)CC2)N1Cc1ccccc1 (stereo not shown) [Example 43, 1,3-Dibenzyl-8-(4-nitrobenzolsulfonyl)-1,4,8-triazaspiro[4,5]decan-2-one] | 51 | 71 | 62 |  |  |  | 
2 | CSCCC1NC2(CCN(C(=S)Nc3cc(C(F)(F)F)ccc3Cl)CC2)N(Cc2ccccc2C#N)C1=O (stereo not shown) [Example 147, 1-(2-Cyanobenzyl)-3-(2-methylsulfanylethyl)-2-oxo-1,4,8-triazaspiro[4,5]decan-8-thiocarboxylic acid (2-chloro-5-trifluoromethylbenzol)amide] | 81 | 33 | 48 |  |  |  | 
3 | CSCCC1NC2(CCN(S(=O)(=O)c3ccccc3Cl)CC2)N(Cc2ccccc2[N+](=O)[O-])C1=O (stereo not shown) [Example 82, 8-(2-Chlorobenzolsulfonyl)-3-(2-methylsulfanylethyl)-1-(2-nitrobenzyl)-1,4,8-triazaspiro[4,5]decan-2-one] | 71 | 49 | 56 |  |  |  | 
4 | COc1cc(C)c(S(=O)(=O)N2CCC3(CC2)NC(Cc2ccccc2)C(=O)N3Cc2ccccc2)c(C)c1C (stereo not shown) [Example 31, 1,3-Dibenzyl-8-(4-methoxy-2,3,6-trimethylbenzolsulfonyl)-1,4,8-triazaspiro[4,5]decan-2-one] | 82 | 67 | 57 |  |  |  | 
5 | CSCCC1NC2(CCN(S(=O)(=O)c3ccc(F)cc3F)CC2)N(Cc2cc(C)cc(C)c2)C1=O (stereo not shown) [Example 42, 8-(2,4-Difluorobenzolsulfonyl)-1-(3,5-dimethylbenzyl)-3-(2-methylsulfanylethyl)-1,4,8-triazaspiro[4,5]decan-2-one] | 56 |  | 48 |  |  |  | 
6 | CC(C)C1NC2(CCN(S(=O)(=O)c3ccccc3Cl)CC2)NC1=O (stereo not shown) [Example 8, 8-(2-Chlorobenzolsulfonyl)-3-isopropyl-1,4,8-triazaspiro[4,5]decan-2-one] |  | 55 | 41 |  |  |  | 
7 | 8-Benzolsulfonyl-1,3-dibenzyl-1,4,8-triazaspiro[4,5]decan-2-one [Example 247] |  |  | 72 | 4 |  |  | 
8 | CCOC(=O)CN1C(=O)C(Cc2ccccc2)NC12CCN(S(=O)(=O)c1ccccc1C(F)(F)F)CC2 (stereo not shown) [Example 65, Ethyl[3-benzyl-2-oxo-8-(2-trifluoromethylbenzolsulfonyl)-1,4,8-triazaspiro[4,5]dec-1-yl]-acetate] | 51 | 71 |  |  | 33 |  | 
9 | CCCCN1C(=O)C(CCSC)NC12CCN(C(=O)NCc1ccc(Cl)c(Cl)c1)CC2 (stereo not shown) [Example 219, 1-Butyl-3-(2-methylsulfanylethyl)-2-oxo-1,4,8-triazaspiro[4,5]decan-8-carboxylic acid 3,4-dichlorobenzylamide] | 70 |  |  |  | 42 | 37 | 
10 | 1,3-Dibenzyl-8-(4-methoxy-benzolsulfonyl)-1,4,8-triazaspiro[4,5]decan-2-one [Example 249] |  |  | 80 | 3.5 |  |  | 
11 | CSCCC1NC2(CCN(C(=S)Nc3cccc(C(C)=O)c3)CC2)N(Cc2ccc3ccccc3c2)C1=O (stereo not shown) [Example 165, 3-(2-Methylsulfanylethyl)-1-naphthalin-2-ylmethyl-2-oxo-1,4,8-triazaspiro[4,5]decan-8-thiocarboxylic acid (3-acetylbenzol)amide] | 64 | 42 |  |  | 48 |  | 
12 | CCOC(=O)NC(=S)N1CCC2(CC1)NC(Cc1ccccc1)C(=O)N2Cc1ccccc1F (stereo not shown) [Example 174, Ethyl[3-benzyl-1-(2-fluorobenzyl)-2-oxo-1,4,8-triazaspiro[4,5]decan-8-carbothioyl]-carbamate] | 38 |  |  |  | 39 | 31 | 
13 | CS(=O)(=O)N1CCC2(CC1)NC(Cc1ccccc1)C(=O)N2Cc1ccccc1 (stereo not shown) [Example 246, 1,3-Dibenzyl-8-methansulfonyl-1,4,8-triazaspiro[4,5]decan-2-one] |  |  |  |  |  |  | 50
14 | 1,3-Dibenzyl-8-(4-chlorobenzolsulfonyl)-1,4,8-triazaspiro[4,5]decan-2-one [Example 248] |  |  | 87 | 1.2 |  |  | 
15 | CCCCN1C(=O)C(CCSC)NC12CCN(C(=S)Nc1ccc(F)cc1)CC2 (stereo not shown) [Example 189, 1-Butyl-3-(2-methylsulfanylethyl)-2-oxo-1,4,8-triazaspiro[4,5]decan-8-thiocarboxylic acid (4-fluorobenzol)amide] | 41 | 66 |  |  | 30 |  | 
16 | CCOC(=O)CN1C(=O)C(Cc2ccccc2)NC12CCN(S(=O)(=O)c1ccccc1S(C)(=O)=O)CC2 (stereo not shown) [Example 47, Ethyl[3-benzyl-8-(2-methansulfonylbenzolsulfonyl)-2-oxo-1,4,8-triazaspiro[4,5]dec-1-yl]-acetate] | 31 | 71 |  |  | 47 |  | 
17 | CSCCC1NC2(CCN(C(=O)Nc3ccc(Cl)c(C(F)(F)F)c3)CC2)N(Cc2ccccc2)C1=O (stereo not shown) [Example 211, 1-Benzyl-3-(2-methylsulfanylethyl)-2-oxo-1,4,8-triazaspiro[4,5]decan-8-carboxylic acid (4-chloro-3-trifluoromethylbenzol)amide] | 85 | 45 |  |  | 40 |  | 
18 | CCOC(=O)CN1C(=O)C(Cc2ccccc2)NC12CCN(S(=O)(=O)Cc1ccccc1)CC2 (stereo not shown) [Example 68, Ethyl(3-benzyl-2-oxo-8-benzolmethansulfonyl-1,4,8-triazaspiro[4,5]dec-1-yl)acetate] | 47 | 69 |  |  | 31 |  | 
19 | CCCCN1C(=O)C(C(C)C)NC12CCN(C(=S)NC(C)C)CC2 (stereo not shown) [Example 107, 1-Butyl-3-isopropyl-2-oxo-1,4,8-triazaspiro[4,5]decan-8-thiocarboxylic acid isopropylamide] |  |  |  |  |  | 28 | 56
20 | CSCCC1NC2(CCN(C(=O)Nc3cccc(C(C)=O)c3)CC2)N(Cc2ccccc2)C1=O (stereo not shown) [Example 214, 1-Benzyl-3-(2-methylsulfanylethyl)-2-oxo-1,4,8-triazaspiro[4,5]decan-8-carboxylic acid (3-acetylbenzol)amide] | 40 | 51 |  |  | 36 |  | 
21 | COc1cccc(NC(=O)N2CCC3(CC2)NC(CCSC)C(=O)N3Cc2cccc(C#N)c2)c1 (stereo not shown) [Example 236, 1-(3-Cyanobenzyl)-3-(2-methylsulfanylethyl)-2-oxo-1,4,8-triazaspiro[4,5]decan-8-carboxylic acid (3-methoxy-benzol)amide] | 42 | 32 |  |  | 34 |  | 
22 | CSCCC1NC2(CCN(C(=O)Nc3cccc(C#N)c3)CC2)N(Cc2ccccc2)C1=O (stereo not shown) [Example 208, 1-Benzyl-3-(2-methylsulfanylethyl)-2-oxo-1,4,8-triazaspiro[4,5]decan-8-carboxylic acid (3-cyanobenzol)amide] | 41 | 45 |  |  | 49 |  | 
23 | CCCCN1C(=O)C(CCSC)NC12CCN(C(=O)Nc1cc(OC)c(OC)c(OC)c1)CC2 (stereo not shown) [Example 210, 1-Butyl-3-(2-methylsulfanylethyl)-2-oxo-1,4,8-triazaspiro[4,5]decan-8-carboxylic acid (3,4,5-trimethoxy-benzol)amide] | 44 | 32 |  |  | 36 |  | 
24 | C#CCN1C(=O)C(Cc2ccccc2)NC12CCN(S(=O)(=O)c1ccccc1C(F)(F)F)CC2 (stereo not shown) [Example 39, 3-Benzyl-1-prop-2-ynyl-8-(2-trifluoromethylbenzolsulfonyl)-1,4,8-triazaspiro[4,5]decan-2-one] | 39 | 38 |  |  | 41 |  | 
25 | CC(C)C1NC2(CCN(C(=S)Nc3c(F)c(F)c(F)c(F)c3F)CC2)N(Cc2ccccc2)C1=O (stereo not shown) [Example 154, 1-Benzyl-3-isopropyl-2-oxo-1,4,8-triazaspiro[4,5]decan-8-thiocarboxylic acid pentafluorobenzolamide-amide] | 61 | 34 |  |  | 43 |  | 
